Experimental data published in ChEMBL document CHEMBL3868615, “Decahydrobenzoquinolin-5-one sigma receptor ligands: Divergent development of both sigma 1 and sigma 2 receptor selective examples” (Bioorg Med Chem Lett, 2016).

Legend:
D(2) dopamine receptor = D(2) dopamine receptor (Homo sapiens, UniProt P14416); experiment: Displacement of [3H]N-methylspiperone from human D2 receptor expressed in fibroblast cells measured after 90 mins by microbeta scintillation counting method; format: cell-based
Sequence of D(2) dopamine receptor (P14416 whole entry): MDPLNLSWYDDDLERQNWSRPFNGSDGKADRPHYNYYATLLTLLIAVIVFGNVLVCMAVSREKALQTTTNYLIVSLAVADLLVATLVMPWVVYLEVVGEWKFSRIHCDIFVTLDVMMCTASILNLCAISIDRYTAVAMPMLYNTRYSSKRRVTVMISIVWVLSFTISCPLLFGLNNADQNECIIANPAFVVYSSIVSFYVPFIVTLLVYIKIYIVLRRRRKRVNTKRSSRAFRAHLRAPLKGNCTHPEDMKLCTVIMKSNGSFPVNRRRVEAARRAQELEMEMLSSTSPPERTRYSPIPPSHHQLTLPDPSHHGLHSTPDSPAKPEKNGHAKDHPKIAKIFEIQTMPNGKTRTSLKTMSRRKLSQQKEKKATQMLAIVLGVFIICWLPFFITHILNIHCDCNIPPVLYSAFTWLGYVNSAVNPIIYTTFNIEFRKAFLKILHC

[1] = molecular target: 5-hydroxytryptamine receptor 1E (Homo sapiens, UniProt P28566); experiment: Displacement of [3H]5-HT from human 5-HT1E receptor expressed in HEK cells measured after 90 mins by microbeta scintillation counting method; format: cell-based, HEK293
Sequence of 5-hydroxytryptamine receptor 1E (P28566 whole entry): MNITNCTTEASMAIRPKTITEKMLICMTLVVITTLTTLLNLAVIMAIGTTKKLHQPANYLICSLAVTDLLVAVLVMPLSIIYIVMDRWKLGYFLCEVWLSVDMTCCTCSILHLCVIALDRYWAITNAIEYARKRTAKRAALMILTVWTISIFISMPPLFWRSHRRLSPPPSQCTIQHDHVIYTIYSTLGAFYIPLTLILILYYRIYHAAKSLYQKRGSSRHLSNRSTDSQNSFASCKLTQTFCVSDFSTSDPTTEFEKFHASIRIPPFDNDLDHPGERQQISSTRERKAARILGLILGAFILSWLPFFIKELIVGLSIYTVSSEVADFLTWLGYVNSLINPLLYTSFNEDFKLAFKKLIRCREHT

[2] = molecular target: Kappa-type opioid receptor (Homo sapiens, UniProt P41145); conditions: HEKT, 10 uM
[3] = molecular target: Alpha-1B adrenergic receptor (Homo sapiens, UniProt P35368); experiment: Displacement of [3H]Prazosin from human Alpha1B receptor expressed in HEK-T cells measured after 90 mins by microbeta scintillation counting method; format: cell-based
Sequence of Alpha-1B adrenergic receptor (P35368 whole entry): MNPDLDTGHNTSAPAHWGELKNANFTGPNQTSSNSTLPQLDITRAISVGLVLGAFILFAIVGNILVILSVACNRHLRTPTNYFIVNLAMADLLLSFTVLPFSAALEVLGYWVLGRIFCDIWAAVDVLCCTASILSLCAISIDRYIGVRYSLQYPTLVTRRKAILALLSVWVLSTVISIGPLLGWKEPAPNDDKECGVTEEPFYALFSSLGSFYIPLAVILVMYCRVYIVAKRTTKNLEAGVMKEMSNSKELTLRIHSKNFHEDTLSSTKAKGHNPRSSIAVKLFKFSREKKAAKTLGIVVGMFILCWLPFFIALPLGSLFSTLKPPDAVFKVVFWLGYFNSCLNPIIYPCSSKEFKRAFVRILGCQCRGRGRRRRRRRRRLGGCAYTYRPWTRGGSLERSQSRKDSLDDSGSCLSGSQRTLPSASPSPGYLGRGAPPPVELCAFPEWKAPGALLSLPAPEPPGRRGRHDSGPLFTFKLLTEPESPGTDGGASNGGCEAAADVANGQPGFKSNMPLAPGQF

[4] = molecular target: 5-hydroxytryptamine receptor 1D (Homo sapiens, UniProt P28221); experiment: Displacement of [3H]5-CT from human 5-HT1D receptor expressed in HEK-T cells measured after 90 mins by microbeta scintillation counting method; format: cell-based
[5] = molecular target: Alpha-2B adrenergic receptor (Homo sapiens) (UniProt P18089); conditions: HEK-T, 10 uM
Mu-type opioid receptor = Mu-type opioid receptor (Homo sapiens, UniProt P35372); conditions: HEK293, 10 uM
[6] = molecular target: 5-hydroxytryptamine receptor 5A (Homo sapiens, UniProt P47898); experiment: Displacement of [3H]LSD from human 5-HT5A receptor expressed in Flp-In CHO cells measured after 90 mins by microbeta scintillation counting method; format: cell-based
Sequence of 5-hydroxytryptamine receptor 5A (P47898 whole entry): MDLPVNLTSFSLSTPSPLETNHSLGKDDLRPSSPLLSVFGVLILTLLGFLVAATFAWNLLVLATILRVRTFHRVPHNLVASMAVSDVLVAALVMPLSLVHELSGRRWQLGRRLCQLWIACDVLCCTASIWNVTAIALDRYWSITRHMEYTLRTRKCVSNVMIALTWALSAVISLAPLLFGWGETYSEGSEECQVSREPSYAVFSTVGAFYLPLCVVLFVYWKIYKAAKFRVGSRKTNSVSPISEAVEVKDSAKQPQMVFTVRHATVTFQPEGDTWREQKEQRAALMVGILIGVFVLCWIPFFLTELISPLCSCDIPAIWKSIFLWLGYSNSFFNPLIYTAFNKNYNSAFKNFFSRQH

[7] = molecular target: Muscarinic acetylcholine receptor M5 (Homo sapiens, UniProt P08912); experiment: Binding affinity to human M5 receptor expressed in CHO cells measured after 90 mins by radioligand binding assay; format: cell-based
Sequence of Muscarinic acetylcholine receptor M5 (P08912 whole entry): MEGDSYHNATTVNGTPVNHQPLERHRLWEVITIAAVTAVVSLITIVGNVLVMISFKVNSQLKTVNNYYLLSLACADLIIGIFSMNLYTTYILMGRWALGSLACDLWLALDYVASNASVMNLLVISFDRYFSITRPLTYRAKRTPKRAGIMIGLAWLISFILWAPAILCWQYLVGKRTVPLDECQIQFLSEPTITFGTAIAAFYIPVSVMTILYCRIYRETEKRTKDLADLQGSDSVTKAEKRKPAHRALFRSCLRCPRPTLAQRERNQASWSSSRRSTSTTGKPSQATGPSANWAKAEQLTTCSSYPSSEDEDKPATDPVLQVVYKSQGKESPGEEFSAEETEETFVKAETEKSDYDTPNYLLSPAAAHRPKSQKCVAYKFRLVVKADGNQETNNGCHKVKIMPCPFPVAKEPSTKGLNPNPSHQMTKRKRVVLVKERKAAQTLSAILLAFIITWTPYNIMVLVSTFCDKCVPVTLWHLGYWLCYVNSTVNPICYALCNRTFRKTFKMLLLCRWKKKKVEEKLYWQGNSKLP

[8] = molecular target: Muscarinic acetylcholine receptor M1 (Homo sapiens, UniProt P11229); experiment: Binding affinity to human M1 receptor expressed in CHO cells measured after 90 mins by radioligand binding assay; format: cell-based
Sequence of Muscarinic acetylcholine receptor M1 (P11229 whole entry): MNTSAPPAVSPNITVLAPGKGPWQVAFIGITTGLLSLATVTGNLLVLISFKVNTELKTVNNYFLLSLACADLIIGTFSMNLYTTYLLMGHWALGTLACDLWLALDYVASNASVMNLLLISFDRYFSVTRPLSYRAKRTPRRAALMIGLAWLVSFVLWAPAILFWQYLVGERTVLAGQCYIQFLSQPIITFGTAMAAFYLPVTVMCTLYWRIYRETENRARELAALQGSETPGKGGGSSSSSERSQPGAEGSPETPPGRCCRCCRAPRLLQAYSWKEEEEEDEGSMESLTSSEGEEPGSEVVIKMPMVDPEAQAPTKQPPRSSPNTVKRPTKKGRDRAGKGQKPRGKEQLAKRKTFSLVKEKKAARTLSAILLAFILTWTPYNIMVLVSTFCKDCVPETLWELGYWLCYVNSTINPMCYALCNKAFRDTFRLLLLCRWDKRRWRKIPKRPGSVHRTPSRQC

Histamine H3 receptor [9] = molecular target: T1, Histamine H3 receptor (Homo sapiens, UniProt Q9Y5N1); experiment: Displacement of [3H]alpha-methylhistamine from human H3 receptor expressed in HEK Flp-In cells measured after 90 mins by microbeta scintillation counting method; format: cell-based, HEK293
T1 sequence (Q9Y5N1 whole entry): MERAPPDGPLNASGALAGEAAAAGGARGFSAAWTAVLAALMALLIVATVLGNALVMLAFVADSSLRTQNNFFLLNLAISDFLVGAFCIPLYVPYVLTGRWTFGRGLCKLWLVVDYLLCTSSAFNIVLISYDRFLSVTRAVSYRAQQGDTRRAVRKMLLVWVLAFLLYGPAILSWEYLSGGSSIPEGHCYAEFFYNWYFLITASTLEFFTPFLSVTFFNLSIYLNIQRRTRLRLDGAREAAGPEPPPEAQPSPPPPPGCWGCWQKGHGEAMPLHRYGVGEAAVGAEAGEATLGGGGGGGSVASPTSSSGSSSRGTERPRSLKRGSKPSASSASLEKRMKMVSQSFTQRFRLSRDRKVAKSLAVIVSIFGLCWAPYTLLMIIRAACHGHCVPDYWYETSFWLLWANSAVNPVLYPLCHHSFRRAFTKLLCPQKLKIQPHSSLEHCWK

[10] = molecular target: Alpha-1A adrenergic receptor (Homo sapiens, UniProt P35348); experiment: Displacement of [3H]Prazosin from human Alpha1A receptor measured after 90 mins by microbeta scintillation counting method
Histamine H2 receptor = Histamine H2 receptor (Homo sapiens, UniProt P25021); experiment: Binding affinity to H2 receptor (unknown origin) expressed in HEKT cells measured after 90 mins by radioligand binding assay; format: cell-based
Sequence of Histamine H2 receptor (P25021 whole entry): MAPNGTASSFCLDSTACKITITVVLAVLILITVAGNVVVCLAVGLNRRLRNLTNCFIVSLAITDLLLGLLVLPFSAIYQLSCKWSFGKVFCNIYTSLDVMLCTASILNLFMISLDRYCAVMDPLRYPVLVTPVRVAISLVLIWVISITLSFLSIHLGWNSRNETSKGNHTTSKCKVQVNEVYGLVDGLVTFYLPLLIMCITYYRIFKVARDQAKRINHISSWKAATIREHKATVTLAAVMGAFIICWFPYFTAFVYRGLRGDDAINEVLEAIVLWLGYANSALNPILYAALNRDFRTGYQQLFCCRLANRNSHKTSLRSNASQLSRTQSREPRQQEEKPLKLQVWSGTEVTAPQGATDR

[11] = molecular target: Beta-2 adrenergic receptor (Homo sapiens, UniProt P07550); experiment: Displacement of [3H]CGP12177 from human beta2 receptor expressed in HEK Flp-In cells measured after 90 mins by microbeta scintillation counting method; format: cell-based, HEK293
Sequence of Beta-2 adrenergic receptor (P07550 whole entry): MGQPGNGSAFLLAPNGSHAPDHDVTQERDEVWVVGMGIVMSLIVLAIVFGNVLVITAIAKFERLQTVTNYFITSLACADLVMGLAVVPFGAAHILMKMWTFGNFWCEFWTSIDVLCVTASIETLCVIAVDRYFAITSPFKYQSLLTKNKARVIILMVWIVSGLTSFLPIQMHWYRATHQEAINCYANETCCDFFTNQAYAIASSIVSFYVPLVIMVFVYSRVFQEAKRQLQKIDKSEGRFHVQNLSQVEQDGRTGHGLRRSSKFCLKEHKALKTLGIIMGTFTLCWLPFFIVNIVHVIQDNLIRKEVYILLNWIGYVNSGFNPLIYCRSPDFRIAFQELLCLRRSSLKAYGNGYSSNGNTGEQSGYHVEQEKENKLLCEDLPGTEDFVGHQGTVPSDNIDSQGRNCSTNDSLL

D(1A) dopamine receptor = D(1A) dopamine receptor (Homo sapiens, UniProt P21728); experiment: Displacement of [3H]SCH23390 from human D1 receptor expressed in HEK-T cells measured after 90 mins by microbeta scintillation counting method; format: cell-based
Sequence of D(1A) dopamine receptor (P21728 whole entry): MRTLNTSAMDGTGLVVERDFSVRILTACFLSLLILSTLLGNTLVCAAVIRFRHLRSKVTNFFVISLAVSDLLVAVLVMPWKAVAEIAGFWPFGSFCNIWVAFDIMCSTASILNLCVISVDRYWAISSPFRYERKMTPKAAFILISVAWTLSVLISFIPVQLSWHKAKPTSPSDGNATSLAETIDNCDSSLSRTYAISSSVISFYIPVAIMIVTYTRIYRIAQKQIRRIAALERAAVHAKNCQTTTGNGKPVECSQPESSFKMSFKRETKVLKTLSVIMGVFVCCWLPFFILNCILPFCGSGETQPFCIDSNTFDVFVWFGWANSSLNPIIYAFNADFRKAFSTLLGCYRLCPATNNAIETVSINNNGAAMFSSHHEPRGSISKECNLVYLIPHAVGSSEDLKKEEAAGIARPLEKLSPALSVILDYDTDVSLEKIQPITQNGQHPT

[12] = molecular target: Alpha-2C adrenergic receptor (Homo sapiens) (UniProt P18825); conditions: MDCK, 10 uM
[13] = molecular target: 5-hydroxytryptamine receptor 3A (Homo sapiens, UniProt P46098); experiment: Displacement of [3H]GR65630 from human 5-HT3 receptor expressed in HEK-T cells measured after 90 mins by microbeta scintillation counting method; format: cell-based
Sequence of 5-hydroxytryptamine receptor 3A (P46098 whole entry): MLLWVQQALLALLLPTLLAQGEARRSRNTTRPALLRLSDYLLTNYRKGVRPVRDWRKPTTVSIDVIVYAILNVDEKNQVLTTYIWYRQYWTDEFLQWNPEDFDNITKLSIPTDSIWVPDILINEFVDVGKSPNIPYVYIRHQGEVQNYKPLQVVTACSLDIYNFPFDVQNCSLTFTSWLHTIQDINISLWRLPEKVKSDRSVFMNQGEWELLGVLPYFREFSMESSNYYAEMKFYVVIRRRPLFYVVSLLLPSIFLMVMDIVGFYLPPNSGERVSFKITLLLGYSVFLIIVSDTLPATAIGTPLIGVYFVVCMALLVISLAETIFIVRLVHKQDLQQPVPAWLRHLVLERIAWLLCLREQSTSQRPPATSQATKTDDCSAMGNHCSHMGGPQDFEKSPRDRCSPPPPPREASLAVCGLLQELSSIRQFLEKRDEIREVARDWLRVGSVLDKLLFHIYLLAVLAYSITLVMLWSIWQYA

PC-12 = experiment: Selectivity ratio of Ki for guinea pig sigma1 receptor to Ki for sigma2 receptor in rat PC12 cells; format: cell-based
[14] = molecular target: Alpha-2A adrenergic receptor (Homo sapiens) (UniProt P08913); conditions: MDCK, 10 uM
[15] = molecular target: 5-hydroxytryptamine receptor 2C (Homo sapiens) (UniProt P28335); conditions: HEK293, 10 uM
[16] = molecular target: Muscarinic acetylcholine receptor M3 (Homo sapiens, UniProt P20309); experiment: Binding affinity to human M3 receptor expressed in CHO cells at 10 uM measured after 90 mins by radioligand binding assay relative to control; format: cell-based
Histamine H3 receptor [17] = molecular target: T1, Histamine H3 receptor; conditions: HEK293, 10 uM
[18] = molecular target: Muscarinic acetylcholine receptor M5 (Homo sapiens) (UniProt P08912); experiment: Binding affinity to human M5 receptor expressed in CHO cells at 10 uM measured after 90 mins by radioligand binding assay relative to control; format: cell-based
Sequence of Muscarinic acetylcholine receptor M5 (Homo sapiens) (P08912 whole entry): as the sequence (P08912 whole entry) above

[19] = molecular target: 5-hydroxytryptamine receptor 2B (Homo sapiens, UniProt P41595); conditions: HEK293, 10 uM
[20] = molecular target: Sodium-dependent dopamine transporter (Homo sapiens, UniProt Q01959); conditions: HEK293, 10 uM

CCCN1CC[C@H]2c3cc4ccc(C(F)(F)F)cc4nc3[C@H](CC)[C@H]3CCC[C@@H]1[C@@H]32
Ki (D(2) dopamine receptor): > 10 µM | Ki [1]: > 10 µM | inhibition [2]: > 50% | Ki [3]: > 10 µM | Ki [4]: > 10 µM | inhibition [5]: > 50% | inhibition (Mu-type opioid receptor): > 50% | Ki [6]: > 10 µM | Ki [7]: > 10 µM | Ki [8]: > 10 µM | Ki (Histamine H3 receptor [9]): > 10 µM | Ki [10]: > 10 µM | Ki (Histamine H2 receptor): > 10 µM | Ki [11]: > 10 µM | Ki (D(1A) dopamine receptor): > 10 µM | inhibition [12]: > 50% | Ki [13]: > 10 µM | Ratio Ki (PC-12): 28 | inhibition [14]: > 50%

CN1CC[C@H]2CC(=O)[C@H](Cc3ccccc3)[C@H]3CCC[C@@H]1[C@H]23
inhibition [15]: > 50% | Ki (D(2) dopamine receptor): > 10 µM | Ki [1]: > 10 µM | Activity [16]: > 50% | Ki [3]: > 10 µM | Ki [4]: > 10 µM | Ki [6]: > 10 µM | Ki [7]: 3.49 µM | Ki [8]: > 10 µM | Ki (Histamine H3 receptor [9]): 0.814 µM | Ki [10]: > 10 µM | Ki (Histamine H2 receptor): > 10 µM | Ki [11]: > 10 µM | inhibition (Histamine H3 receptor [17]): > 50% | Ki (D(1A) dopamine receptor): > 10 µM | Activity [18]: > 50% | inhibition [19]: > 50% | Ki [13]: > 10 µM | inhibition [20]: > 50%
